One data set deals with Staphylococcus aureus. Nature of the data set: MIC by microdilution method (NCCLS), S. aureus. The format is cell-based. On the procedure:
Exemplary compounds of formula 1 are as follows. MIC refers to the minimal inhibitory concentration which was determined as described in Example 37.
Minimum inhibitor concentrations (MICs) were determined using the microdilution method according to National Committee for Clinical Laboratory Standards (NCCLS) procedures. Compounds were suspended in DMSO at 10 mg/ml and stored at −20° C. The range of concentrations tested was 64-0.06 μg/ml using two-fold dilutions.
To prepare the inoculum, bacterial cultures were grown overnight at 35° C. on agar plates and each organism was resuspended in 1 ml saline to obtain a 0.5 McFarlands density standard. This was subsequently diluted 1:200 into Mueller-Hinton Broth (MHB) or Haemophilus Test Medium (HTM; for Haemophilus) providing a final inoculum size of 5*10^5 cfu/ml. After inoculation with the bacteria, assay plates were incubated at 35° C. for 18-24 h. […] Gram positive and gram negative strains used included Staphylococcus aureus, Enterococcus faecium, Enterococcus faecalis, Streptococcus pneumoniae, Haemophilus influenzae, Pseudomonas aeruginosa, Escherichia coli, and E. coli (acr)—an efflux pump mutant.
As to `CC(=S)NC[C@H]1CN(c2ccc(N(C)S(C)(=O)=O)c(F)c2)C(=O)O1`, the “MIC (minimal inhibitory concentration)” value is reported as 4-8 Tg/mL.
Consider `CSc1ccc(N2C[C@H](CNC(C)=S)OC2=O)cc1F` [drawing 18], for which the “MIC (minimal inhibitory concentration)” value is on record as 4-8 Tg/mL.

System in another data set: not given
Experiment: not given
`CSc1ccc(N2C[C@H](CNC(C)=S)OC2=O)cc1F` showed a melting point of 130 to 131 °C.
With `CC(=S)NC[C@H]1CN(c2ccc(NC(=O)c3ccc([N+](=O)[O-])o3)c(F)c2)C(=O)O1`, the melting point worked out at 188 °C.
`CC[S+]([O-])c1ccc(N2C[C@H](CNC(C)=S)OC2=O)cc1F` (stereo partly drawn): the melting point was 138 to 139 °C.
Take `CC(=S)NC[C@H]1CN(c2ccc(N(C)C=S)c(F)c2)C(=O)O1`: the melting point was in the range of 103 to 104 °C.
Consider `CNC(=O)c1ccc(N2C[C@H](CNC(C)=S)OC2=O)cc1F`, for which the melting point was 176 to 177 °C.
The same measure, in the same setting: next, `CC(=S)NC[C@H]1CN(c2ccc(C(=O)Oc3c(F)c(F)c(F)c(F)c3F)c(F)c2)C(=O)O1`: 163 to 164 °C; `CC(=S)NC[C@H]1CN(c2ccc([S+](C)[O-])c(F)c2)C(=O)O1` (stereo partly drawn): 158 to 160 °C; `CC(=S)NC[C@H]1CN(c2ccc(C3=NOCCO3)c(F)c2)C(=O)O1`: 166 to 167 °C.
Same read-out and setting: the value for `CC(=S)NC[C@H]1CN(c2ccc(C(=O)O)c(F)c2)C(=O)O1` was 180 to 182 °C; that for `CC(=S)NC[C@H]1CN(c2ccc(SCCCl)c(F)c2)C(=O)O1` was 134 to 135 °C.
Still for that read-out and setting: the value for `COC(=O)c1ccc(N2C[C@H](CNC(C)=S)OC2=O)cc1F` was 152 to 154 °C; that for `CC(=S)NC[C@H]1CN(c2ccc([S+]([O-])CCF)c(F)c2)C(=O)O1` (stereo partly drawn) was 161 °C.
Compound `CC(=S)NC[C@H]1CN(c2ccc(Sc3ncc([N+](=O)[O-])s3)c(F)c2)C(=O)O1` came in with a melting point of 116 to 117 °C.
In the case of `CC(=O)NC[C@H]1CN(c2ccc(NC(=O)c3csnn3)c(F)c2)C(=O)O1`, the melting point was determined as 233 °C.
Same read-out and setting: next, `CC(=O)Nc1ccc(N2C[C@H](CNC(C)=S)OC2=O)cc1F`: 200 to 201 °C; `CC(=S)NC[C@H]1CN(c2ccc(NC(=O)c3csnn3)c(F)c2)C(=O)O1`: 203 to 204 °C; `CC(=S)NC[C@H]1CN(c2ccc(S(C)(=O)=O)c(F)c2)C(=O)O1`: 177 °C.
Consider `CC(=S)NC[C@H]1CN(c2ccc(C(=O)NN)c(F)c2)C(=O)O1`, for which the melting point worked out at 177 °C.
In turn, `CC(=S)NC[C@H]1CN(c2ccc(N)c(F)c2)C(=O)O1` had a melting point of 137 to 188 °C.

The term melting point denotes the temperature of the solid-liquid transition.

(Values after patent publication US6743811B2, “Oxazalidinone compounds and methods of preparation and use thereof” (Pharmacia & Upjohn Company, priority 1999, dated 2004).)
